What all share (assay type): cell-based
In assay [1] the test system is LP-1 cells. The assay can be described thus: CCK cell counting assay, RPN11 inhibitor combined with Lenalidomide or Dexamethasone. The conditions noted are these: vs either agent alone, range of concentrations, FIG. 8. The protocol: (§1) CCK kit was used to detect cell proliferation of LP-1 cells stably overexpressing and knocking down RPN11: after the transfected cells were cultured for 48 h, the cells were digested with 0.25% trypsin and counted, inoculated in a 96-well plate at a concentration of 1×10^4 cells/mL, 100 μL in each well; 10 μL of CCK8 reagent was added to each well of the 96-well plate in the dark, the culture plate was shaken for 3 min, then placed into the incubator to continue culturing for 2 h, and the culture plate was taken out and the OD value was measured at a wavelength of 450 nm with a microplate reader.
LP-1 cells were treated with RPN11 inhibitors (OPA or Capzimin) or/and Lenalidomide or Dexamethasone (within a range of concentrations), and the cell proliferation ability was detected using CCK cell counting assay.

For assay [2], the system named is bortezomib-resistant LP-1 cells (LP-1BR). The assay can be described thus: CCK cell counting experiment, bortezomib-resistant LP-1 cells. To be noted: LP-1BR cells, vs control group (Vehicle); OPA 10 μM, Capzimin 2 μM; FIG. 7A. The protocol:
as §1
(§2) Wild-type or bortezomib-resistant LP-1 cells (LP-1 or LP-1BR) were treated with Vehicle or RPN11 inhibitor (OPA or Capzimin) separately, and the proliferation and apoptosis of LP-1BR cells were detected through CCK cell counting experiment and cell apoptosis experiment.

Assay [3] concerns LP-1 cells. The assay is described as follows: Cell apoptosis experiment, wild-type LP-1 cells. The conditions noted are these: vs control group (Vehicle), OPA 10 μM, Capzimin 2 μM, FIG. 7B. The protocol:
(§3) Apoptosis was detected in LP-1 cells stably overexpressing and knocking down RPN11. The cells were treated with camptothecin (CPT) for 24 h, washed with PBS, double-stained with Annexin V-APC/propidium iodide (PI) for 15 min at room temperature in the dark, and cell collection and analysis were conducted on each sample using a FACS Calibur flow cytometer.
as §2

Assay [4] deals with LP-1 cells. The assay can be described thus: CCK cell counting experiment, wild-type LP-1 cells. The conditions noted are these: vs control group (Vehicle), OPA 10 μM, Capzimin 2 μM, FIG. 7A. The protocol:
as §1, §2

Assay [5] relates to bortezomib-resistant LP-1 cells (LP-1BR). The assay can be described thus: Cell apoptosis experiment, bortezomib-resistant LP-1 cells. To be noted: LP-1BR cells, vs control group (Vehicle); OPA 10 μM, Capzimin 2 μM; FIG. 7B. Here is the method: as §3, §2

Turning to `c1cnc2c(c1)ccc1cccnc12` [OPA], the “combined treatment effect on inhibiting the growth and proliferation” value in the assay on LP-1 cells [1] (combined with dexamethasone) and in the assay on LP-1 cells [1] (combined with lenalidomide) was “synergistic effect” each time. Moreover, the proliferation ability result (in assay [2]; in the assay with LP-1 cells [4]) was “significantly reduced” throughout. For the same compound, the “number of apoptotic cells” value (in the assay on LP-1 cells [3]; in assay [5]) was “significantly increased” each time.
